Legend:
mouse spleen cells = test: Action on the blastogenesis of mouse spleen cells (ConA-stimulated, MTT reduction method); assay type: cell-based, BALB/c mouse; details: Mus musculus, 72 h, ConA 1 µg/ml, 3 days, rate against no test compound = one
Method: Serial two-fold dilutions (100 µl/well) with 10% FBS of test compounds which are dissolved in a dimethyl sulfoxide (DMSO) solution are obtained on a 96-well microplate, and used as test samples.
The spleen of a BALB/c mouse is aseptically isolated, and gently ground on a wire mesh with dropwise addition of sterilzed saline. The filtrate is passed through a nylon mesh (Becton Dickinson; pore size: 70 µm), thereby preparing a unicellular suspension.
(§1) After being washed twice with sterilized saline, the spleen cells are suspended in RPMI1460 containing 10% FCS and containing 1 µg/ml of concanavalin A (abbreviated as ConA: Sigma, U.S.) as well as an antibiotic (Sigma: Antibiotic Antimycotic), and dispensed into a 96-well microplate, in which 100 µl each of diluted test samples are previously dispensed, in amounts of 3 × 10^5 cells/100 µl/well.
Thereafter, culturing is carried out under 5% carbon dioxide gas at 37°C for 3 days, and then the blastogenesis of lymphocytes is measured by an MTT reduction method [Mosmann T, Journal of Immunological Method, vol. 65, p. 55, 1983]. The blastogenesis rate can be quantitated as a rate against the blastogenesis of those not having test compounds added thereto, which is defined as one. The presence of an immunoactivating action can be determined if the blastogenesis rate exceeds one.
Serial two-fold dilutions (100 µl/well) with RPMI1640 (Nikken Biomedical Laboratory) containing 10% FBS (bovine fetal serum: Dainippon Pharmaceutical Co., Ltd.) of test compounds which were dissoloved in a dimethylsulfoxide (DMSO) solution were obtained on a 96-well microplate, and used as test samples.
The spleen of a BALB/c mouse (a 6 week-old female) was aseptically isolated, and gently ground on a wire mesh with dropwise addition of sterilzed saline. The filtrate was passed through a nylon mesh (Becton Dickinson; pore size: 70 µm), thereby preparing a unicellular suspension.
as §1, with “cells were” for “cells are”, “samples had” for “samples are”, “previously been” for “previously”, “of 3×10^5” for “of 3 × 10^5”
Thereafter, culturing was carried out under 5% carbon dioxide gas at 37°C for 3 days, and then the blastogenesis of lymphocytes was measured by an MTT reduction method [Mosmann T, Journal of Immunological Method, vol. 65, p. 55, 1983]. The results are shown in [Table 4].

mouse bone marrow cells = test: Metabolism promoting action on mouse bone marrow cells (mitochondrial metabolism activity, MTT reduction method); assay type: cell-based, BALB/c mouse; details: Mus musculus, Bone marrow cell, 120 h, 5 days, magnitude of metabolism, no test compound = one; for activity at 0.39 µg/mL: Test compound concentration 0.39 µg/ml; for activity at 0.78 µg/mL: Test compound concentration 0.78 µg/ml; for activity at 1.56 µg/mL: Test compound concentration 1.56 µg/ml; for activity at 3.13 µg/mL: Test compound concentration 3.13 µg/ml; for activity at 6.25 µg/mL: Test compound concentration 6.25 µg/ml; for activity at 12.5 µg/mL: Test compound concentration 12.5 µg/ml
Text: The presence of an immunoactivating action can be determined if the magnitude of metabolism exceeds one, where the cellular metabolism of cells not having test compounds added thereto is defined as one.

SMILES	activity at 0.1 µg/mL (mouse spleen cells; concentration of additions in medium 0.1 μg/ml) [%]	activity at 0.2 µg/mL (mouse spleen cells; concentration of additions in medium 0.2 μg/ml) [%]	activity at 0.39 µg/mL (mouse spleen cells; concentration of additions in medium 0.39 μg/ml) [%]	activity at 0.78 µg/mL (mouse spleen cells; concentration of additions in medium 0.78 μg/ml) [%]	activity at 1.56 µg/mL (mouse spleen cells; concentration of additions in medium 1.56 μg/ml) [%]	activity at 3.13 µg/mL (mouse spleen cells; concentration of additions in medium 3.13 μg/ml) [%]	activity at 6.25 µg/mL (mouse spleen cells; concentration of additions in medium 6.25 μg/ml) [%]	activity at 0.39 µg/mL (mouse bone marrow cells) [%]	activity at 0.78 µg/mL (mouse bone marrow cells) [%]	activity at 1.56 µg/mL (mouse bone marrow cells) [%]	activity at 3.13 µg/mL (mouse bone marrow cells) [%]	activity at 6.25 µg/mL (mouse bone marrow cells) [%]	activity at 12.5 µg/mL (mouse bone marrow cells) [%]
COc1cc2c(c(OC)c1CC=C(C)C)CC(c1ccc(O)c(CC=C(C)C)c1O)CO2 (stereo not shown) [A-2, 4-[3,4-dihydro-5,7-dimethoxy-6-(3-methyl-2-butenyl)-2H-1-benzopyran-3-yl]-2-(3-methyl-2-butenyl)-1,3-benzenediol]	117	112	137	184	234	121	26	–	–	–	–	–	–
CCCCCCOc1cc2c(c(OC)c1CCC(C)C)CC(c1ccc(O)c(CCC(C)C)c1OCCCCCC)CO2 (stereo not shown) [A-14]	–	–	–	–	–	–	–	134	149	166	184	199	209
CCCCCCCCCOc1ccc(C2COc3cc(O)c(CCC(C)C)c(OC)c3C2)c(OCCCCCCCCC)c1CCC(C)C (stereo not shown) [A-17]	–	–	–	–	–	–	–	116	117	126	164	177	156
CCCCCCCCCOc1cc2c(c(OC)c1CCC(C)C)CC(c1ccc(O)c(CCC(C)C)c1OCCCCCCCCC)CO2 (stereo not shown) [A-18]	–	–	–	–	–	–	–	103	102	109	115	119	114
COc1c2c(cc(OC(C)C)c1CCC(C)C)OCC(c1ccc(O)c(CCC(C)C)c1O)C2 (stereo not shown) [A-19]	–	–	–	–	–	–	–	–	–	120	128	126	53
COc1c(CCC(C)C)c(O)cc2c1CC(c1ccc(OC(C)C)c(CCC(C)C)c1OC(C)C)CO2 (stereo not shown) [A-20]	–	–	–	–	–	–	–	–	–	135	134	116	94
COc1c2c(cc(OC(C)C)c1CCC(C)C)OCC(c1ccc(O)c(CCC(C)C)c1OC(C)C)C2 (stereo not shown) [A-21]	–	–	–	–	–	–	–	–	–	131	122	89	44
COc1c(CCC(C)C)c(O)cc2c1CC(c1ccc(O)c(CCC(C)C)c1OC(C)C)CO2 (stereo not shown) [A-22]	–	–	–	–	–	–	–	–	–	186	176	40	50
COc1cc(OC)c2c(c1)OCC(c1ccc(OCc3ccccc3)cc1OCc1ccccc1)C2 (stereo not shown) [B-1]	–	–	–	–	–	–	–	114	116	136	157	188	178
COc1cc(OC)c2c(c1)OCC(c1ccc(O)cc1O)C2 (stereo not shown) [B-2]	–	–	–	–	–	–	–	106	116	110	146	293	100
COc1cc(OC)c2c(c1)OCC(c1ccc(OCC=C(C)C)cc1OCC=C(C)C)C2 (stereo not shown) [B-3]	–	–	–	–	–	–	–	114	111	110	162	183	204
COc1cc(OC)c2c(c1)OCC(c1ccc(O)c(CC=C(C)C)c1O)C2 (stereo not shown) [B-4]	–	–	–	–	–	–	–	110	115	125	176	258	44
COc1cc(OC)c2c(c1)OCC(c1ccc(O)cc1OCC=C(C)C)C2 (stereo not shown) [B-5]	–	–	–	–	–	–	–	100	115	165	245	205	31
COc1cc(OC)c2c(c1)OCC(c1ccc(O[Si](C)(C)C(C)(C)C)cc1O[Si](C)(C)C(C)(C)C)C2 (stereo not shown) [B-6]	–	–	–	–	–	–	–	100	103	120	144	173	156
COc1cc(O)c2c(c1)OCC(c1ccc(OCc3ccccc3)cc1OCc1ccccc1)C2 (stereo not shown) [B-7]	–	–	–	–	–	–	–	99	100	125	141	132	67
COc1ccc(C2COc3cc(OC)cc(OC)c3C2)c(OC)c1 (stereo not shown) [B-8]	–	–	–	–	–	–	–	94	91	90	90	118	83
COc1cc2c(c(OC)c1CC=C(C)C)CC(c1ccc(O)cc1O)CO2 (stereo not shown) [B-9]	–	–	–	–	–	–	–	110	133	150	165	110	25
COc1cc2c(c(OC)c1C=CC(C)C)CC(c1ccc(O)cc1O)CO2 (stereo not shown) [B-10]	–	–	–	–	–	–	–	118	145	204	119	45	23
COc1cc2c(c(OC)c1CCC(C)C)CC(c1ccc(O)cc1O)CO2 (stereo not shown) [B-11]	–	–	–	–	–	–	–	102	129	125	139	88	32
COc1cc2c(c(OC)c1CC=C(C)C)CC(c1ccc(O[Si](C)(C)C(C)(C)C)cc1O[Si](C)(C)C(C)(C)C)CO2 (stereo not shown) [B-12]	–	–	–	–	–	–	–	–	–	122	122	129	136
COc1cc2c(c(OC)c1CC=C(C)C)CC(c1ccc(OCc3ccccc3)cc1OCc1ccccc1)CO2 (stereo not shown) [B-13]	–	–	–	–	–	–	–	–	–	121	145	152	162

Reference: EP1057825A1, “ISOFLAVANE DERIVATIVES AND IMMUNOPOTENTIATING COMPOSITIONS CONTAINING THE SAME” (SHIONOGI & CO., LTD., priority 1998, dated 1999)
